From patent US20260116868A1 (Arcus Biosciences, Inc., priority 2023, published 2026)
pIC50: −log10 of the molar value.

Molecular target: T1, Cbl-b (Homo sapiens, UniProt Q13191)
T1 construct: biotin (biotinylated protein)
Test: Cbl-b probe displacement HTRF binding assay
Conditions: 0.4 nM Cbl-b, 150 nM BODIPY probe
Outline: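 Binding IC50 from four-parameter fit of HTRF signal loss, normalised to DMSO (0%) and no-protein (100%) wells. Biotinylated Cbl-b 0.4 nM was preincubated 60 min with compound (20-point 1:2 dilution) before 15 min with 150 nM BODIPY probe; Tb-streptavidin detection.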

T1 sequence (Q13191 whole entry, species assumed): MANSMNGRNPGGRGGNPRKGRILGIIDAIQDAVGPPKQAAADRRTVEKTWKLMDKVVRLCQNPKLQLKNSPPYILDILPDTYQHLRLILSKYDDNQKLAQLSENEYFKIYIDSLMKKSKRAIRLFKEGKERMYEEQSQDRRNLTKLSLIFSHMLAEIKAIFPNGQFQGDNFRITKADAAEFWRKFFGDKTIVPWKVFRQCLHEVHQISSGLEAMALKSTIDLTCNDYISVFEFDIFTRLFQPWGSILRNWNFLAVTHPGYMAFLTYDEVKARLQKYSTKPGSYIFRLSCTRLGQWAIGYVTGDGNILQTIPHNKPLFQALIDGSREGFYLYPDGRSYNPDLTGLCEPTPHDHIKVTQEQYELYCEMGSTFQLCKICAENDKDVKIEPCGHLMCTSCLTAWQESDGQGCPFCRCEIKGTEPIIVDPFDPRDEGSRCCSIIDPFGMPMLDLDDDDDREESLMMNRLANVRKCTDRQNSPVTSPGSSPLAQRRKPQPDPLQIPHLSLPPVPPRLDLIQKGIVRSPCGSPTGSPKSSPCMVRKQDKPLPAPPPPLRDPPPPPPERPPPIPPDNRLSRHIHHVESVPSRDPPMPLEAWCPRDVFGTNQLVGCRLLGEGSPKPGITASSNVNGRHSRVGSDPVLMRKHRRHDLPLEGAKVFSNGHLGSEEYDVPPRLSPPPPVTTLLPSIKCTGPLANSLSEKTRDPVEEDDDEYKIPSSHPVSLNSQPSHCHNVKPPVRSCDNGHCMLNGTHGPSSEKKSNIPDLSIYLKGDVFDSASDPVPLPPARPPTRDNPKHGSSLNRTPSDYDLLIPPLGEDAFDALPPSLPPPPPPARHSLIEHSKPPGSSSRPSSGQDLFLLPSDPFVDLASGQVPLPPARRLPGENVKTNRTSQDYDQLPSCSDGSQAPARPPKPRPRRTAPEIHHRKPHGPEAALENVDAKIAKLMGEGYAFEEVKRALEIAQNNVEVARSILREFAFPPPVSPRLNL

For `COc1ccc(-c2cc(NC(=O)c3cc(CNC[C@@H]4CCCO4)cn(C4CC4)c3=O)nc(C3CC3)c2)c(C(=O)N2CC(F)(F)C2)c1` [Example 153, N-(6-Cyclopropyl-4-{2-[(3,3-difluoro-1-azetidinyl)carbonyl]-4-methoxyphenyl}-2-pyridyl)-1-cyclopropyl-2-oxo-5-[({[(S)-perhydro-2-furyl]methyl}amino)methyl]-1,2-dihydronicotinamide], the pIC50 was greater than 7.00.
`CO[C@@H](C)[C@H](C)NCc1cc(C(=O)Nc2cc(-c3ccc(Cl)cc3C(=O)N3CC(F)(F)C3)cc(C3CC3)n2)c(=O)n(C2CC2)c1` [Example 359] showed a pIC50 greater than 7.00.
`CC(C)CNCc1cc(C(=O)Nc2cc(-c3ccc(OC(F)F)cc3C(=O)N3CC(F)(F)C3)cc(OC(C)C)n2)c(=O)n(C2CC2)c1` [Example 99, N-(4-{2-[(3,3-difluoro-1-azetidinyl)carbonyl]-4-difluoromethoxyphenyl}-6-isopropoxy-2-pyridyl)-1-cyclopropyl-5-[(isobutylamino)methyl]-2-oxo-1,2-dihydronicotinamide] was tested, and the pIC50 was greater than 7.00.
`CCOc1cc(-c2ccc(C#N)cc2C(=O)N2CC(F)(F)C2)cc(NC(=O)c2cc(CNC[C@@H]3CCCO3)cn(C3CC3)c2=O)n1` [Example 212] gave a pIC50 greater than 7.00.
For `CC(C)Oc1cc(-c2ccc(OC(F)F)cc2C(=O)N2CC(F)(F)C2)cc(NC(=O)c2cc(CN[C@@H](C)C(C)C)cn(C3CC3)c2=O)n1` [Example 293], the pIC50 was greater than 7.00.
In the case of `C[C@@H]1C[C@H]1CNCc1cc(C(=O)Nc2cc(-c3ccc(Cl)cc3C(=O)N3CC(F)(F)C3)cc(C3CC3)n2)c(=O)n(C2CC2)c1` [Example 384], the pIC50 was greater than 7.00.
`CC(C)CNCc1cc(C(=O)Nc2cc(-c3ccc(OC(F)F)cc3C(=O)N3CC(F)(F)C3)cc(C3CC3)n2)c(=O)n(C2CC2)c1` [Example 322] gave a pIC50 greater than 7.00.
In the case of `CC(C)Nc1cc(-c2ccc(Cl)cc2C(=O)N2CC(F)(F)C2)cc(NC(=O)c2cc(CN[C@@H](C)C3CC3)cn(C3CC3)c2=O)n1` [Example 219], the pIC50 was greater than 7.00.
For `CO[C@@H](C)[C@H](C)NCc1cc(C(=O)Nc2cc(-c3c(F)cc(C#N)cc3C(=O)N3CC(F)(F)C3)cc(OC(C)C)n2)c(=O)n(C)c1` [Example 226], the pIC50 was greater than 7.00.
Work on `CO[C@@H](C)[C@H](C)NCc1cc(C(=O)Nc2cc(-c3ccc(C#N)cc3C(=O)N3CC(F)(F)C3)cc(OC(C)C)n2)c(=O)n(C2CC2)c1` [Example 142] yielded a pIC50 greater than 7.00.
Compound `CO[C@@H](C)[C@H](C)NCc1cc(C(=O)Nc2cc(-c3c(F)cc(C#N)cc3C(=O)N3CC(F)(F)C3)cc(C3CC3)n2)c(=O)n(C)c1` [Example 229] has a pIC50 greater than 7.00.
With `COCCNCc1cc(C(=O)Nc2cc(-c3c(Cl)cc(Cl)cc3C(=O)N3CC(F)(F)C3)cc(C3CC3)n2)c(=O)n(C2CC2)c1` [Example 405] the pIC50 was greater than 7.00.
`C=CCn1cc(CN2CCC[C@H](C)C2)cc(C(=O)Nc2cccc(C3(c4nncn4C)CC(C)C3)c2)c1=O` (mixture of isomers) [Example 77, N-[3-[3-methyl-1-(4-methyl-1,2,4-triazol-3-yl)cyclobutyl]phenyl]-5-[[(3S)-3-methylpiperidin-1-yl]methyl]-2-oxo-1-prop-2-enylpyridine-3-carboxamide] was tested, and the pIC50 was greater than 7.00.
In the case of `CCOc1cc(-c2ccc(C#N)cc2C(=O)N2CC(F)(F)C2)cc(NC(=O)c2cc(CNC[C@H](C)OC)cn(C)c2=O)n1` [Example 181], the pIC50 was greater than 7.00.
`O=C(Nc1cc(-c2ccc(OC(F)F)cc2C(=O)N2CC(F)(F)C2)cc(OCC(F)F)n1)c1cc(CNC[C@@H]2CCCO2)cn(C2CC2)c1=O` [Example 164] showed a pIC50 greater than 7.00.
`CC(C)Oc1cc(-c2ccc(C#N)cc2C(=O)N2CC(F)(F)C2)cc(NC(=O)c2cc(CNC[C@@H]3CCCCO3)cn(C)c2=O)n1` [Example 407] gave a pIC50 greater than 7.00.
`CCOc1cc(-c2ccc(C#N)cc2C(=O)N2CC(F)(F)C2)cc(NC(=O)c2cc(CNCC(C)C)cn(C3CC3)c2=O)n1` [Example 202] showed a pIC50 greater than 7.00.
For `O=C(Nc1cc(-c2c(F)cc(Cl)cc2C(=O)N2CC(F)(F)C2)cc(C2CC2)n1)c1cc(CNC[C@@H]2CCCO2)cn(C2CC2)c1=O` [Example 145, N-(4-{4-chloro-2-[(3,3-difluoro-1-azetidinyl)carbonyl]-6-fluorophenyl}-6-cyclopropyl-2-pyridyl)-1-cyclopropyl-2-oxo-5-[({[(S)-perhydro-2-furyl]methyl}amino)methyl]-1,2-dihydronicotinamide], the pIC50 was greater than 7.00.
In the case of `CO[C@H]1CC[C@@H]1NCc1cc(C(=O)Nc2cc(-c3ccc(C#N)cc3C(=O)N3CC(F)(F)C3)cc(C3CC3)n2)c(=O)n(C2CC2)c1` [Example 402], the pIC50 was greater than 7.00.
Compound `COCCNCc1cc(C(=O)Nc2cc(-c3c(F)cc(Cl)cc3C(=O)N3CC(F)(F)C3)cc(C3CC3)n2)c(=O)n(C2CC2)c1` [Example 147, N-(4-{4-chloro-2-[(3,3-difluoro-1-azetidinyl)carbonyl]-6-fluorophenyl}-6-cyclopropyl-2-pyridyl)-1-cyclopropyl-5-[(2-methoxyethylamino)methyl]-2-oxo-1,2-dihydronicotinamide] has a pIC50 greater than 7.00.
`CCNc1cc(-c2ccc(OC(F)F)cc2C(=O)N2CC(F)C2)cc(NC(=O)c2cc(CNC[C@@H]3CCCO3)cn(C)c2=O)n1` [Example 316] showed a pIC50 greater than 7.00.
`COc1ccc(-c2cc(NC(=O)c3cc(CNCC(C)C)cn(C)c3=O)nc(OC(C)C)c2)c(C(=O)N2CC(F)C2)c1` [Example 317] gave a pIC50 greater than 7.00.
`CCOc1cc(-c2ccc(OC(F)F)cc2C(=O)N2CC(F)C2)cc(NC(=O)c2cc(CN[C@@H](C)C3CCC3)cn(C)c2=O)n1` [Example 257] showed a pIC50 greater than 7.00.
Work on `CC(C)[C@H](C)NCc1cc(C(=O)Nc2cc(-c3ccc(C#N)cc3C(=O)N3CC(F)(F)C3)cc(C3CC3)n2)c(=O)n(C2CC2)c1` [Example 362] yielded a pIC50 greater than 7.00.
In the case of `CCNc1cc(-c2ccc(OC(F)F)cc2C(=O)N2CC(F)C2)cc(NC(=O)c2cc(CN[C@@H](C)C3CCC3)cn(C)c2=O)n1` [Example 103], the pIC50 was greater than 7.00.
Work on `COCCNCc1cc(C(=O)Nc2cc(-c3ccc(Cl)cc3C(=O)N3CC4(COC4)C3)cc(C3CC3)n2)c(=O)n(C2CC2)c1` [Example 306] yielded a pIC50 greater than 7.00.
Compound `CC(C)Nc1cc(-c2c(F)cc(Cl)cc2C(=O)N2CC(F)(F)C2)cc(NC(=O)c2cc(CN[C@@H](C)C3CCC3)cn(C3CC3)c2=O)n1` [Example 200] has a pIC50 greater than 7.00.
Work on `COc1ccc(-c2cc(NC(=O)c3cc(CN[C@@H](C)C4CC4)cn(C4CC4)c3=O)nc(C3CC3)c2)c(C(=O)N2CC(F)C2)c1` [Example 291] yielded a pIC50 greater than 7.00.
With `CC(C)Nc1cc(-c2ccc(OC(F)F)cc2C(=O)N2CC(F)C2)cc(NC(=O)c2cc(CNC[C@@H]3CCCO3)cn(C)c2=O)n1` [Example 299] the pIC50 was greater than 7.00.
Work on `COc1ccc(-c2cc(NC(=O)c3cc(CNC[C@H](C)OC)cn(C4CC4)c3=O)nc(OC(C)C)c2)c(C(=O)N2CC(F)C2)c1` [Example 261] yielded a pIC50 greater than 7.00.
`N#Cc1ccc(-c2cc(NC(=O)c3cc(CNC[C@@H]4CCCO4)cn(CC(F)(F)F)c3=O)nc(C3CC3)c2)c(C(=O)N2CC(F)(F)C2)c1` [Example 179] was tested, and the pIC50 was greater than 7.00.
Work on `CC(C)Oc1cc(-c2ccc(OC(F)F)cc2C(=O)N2CC(F)C2)cc(NC(=O)c2cc(CN[C@@H](C)C3CCC3)cn(C)c2=O)n1` [Example 250] yielded a pIC50 greater than 7.00.
Work on `CC(C)Nc1cc(-c2ccc(OC(F)F)cc2C(=O)N2CC(F)C2)cc(NC(=O)c2cc(CN[C@@H](C)C3CCC3)cn(C)c2=O)n1` [Example 278] yielded a pIC50 greater than 7.00.
In the case of `COc1ccc(-c2cc(NC(=O)c3cc(CN[C@@H](C)C4CCC4)cn(C)c3=O)nc(C3CC3)c2)c(C(=O)N2CC(F)C2)c1` [Example 296], the pIC50 was greater than 7.00.
`CO[C@@H](C)[C@H](C)NCc1cc(C(=O)Nc2cc(-c3ccc(OC(F)F)cc3C(=O)N3CC(F)(F)C3)cc(OC(C)C)n2)c(=O)n(C2CC2)c1` [Example 205] gave a pIC50 greater than 7.00.
For `CCNc1cc(-c2ccc(C#N)cc2C(=O)N2CC(F)(F)C2)cc(NC(=O)c2cc(CNCCOC)cn(C3CC3)c2=O)n1` [Example 346], the pIC50 was greater than 7.00.
`CC(C)Nc1cc(-c2ccc(Cl)cc2C(=O)N2CC(F)(F)C2)cc(NC(=O)c2cc(CN[C@@H](C)C3CCC3)cn(C3CC3)c2=O)n1` [Example 221] gave a pIC50 greater than 7.00.
Work on `CO[C@@H](C)CNCc1cc(C(=O)Nc2cc(-c3ccc(C)cc3C(=O)N3CC(F)(F)C3)cc(OCC(F)F)n2)c(=O)n(C2CC2)c1` [Example 349] yielded a pIC50 greater than 7.00.
With `COc1ccc(-c2cc(NC(=O)c3cc(CN[C@@H](C)C4CC4)cn(C)c3=O)nc(C3CC3)c2)c(C(=O)N2CC(F)C2)c1` [Example 312] the pIC50 was greater than 7.00.
For `CC(C)Oc1cc(-c2ccc(OC(F)F)cc2C(=O)N2CC(F)C2)cc(NC(=O)c2cc(CNC[C@@H]3CCCO3)cn(C3CC3)c2=O)n1` [Example 280], the pIC50 was greater than 7.00.
`CC(C)Oc1cc(-c2c(F)cc(C#N)cc2C(=O)N2CC(F)(F)C2)cc(NC(=O)c2cc(CN[C@@H](C)C3CCC3)cn(C)c2=O)n1` [Example 227] gave a pIC50 greater than 7.00.
`CC(C)Oc1cc(-c2ccc(C#N)cc2C(=O)N2CC(F)(F)C2)cc(NC(=O)c2cc(CNC[C@@H]3COCCO3)cn(C3CC3)c2=O)n1` [Example 371] showed a pIC50 greater than 7.00.
For `CCOc1cc(-c2ccc(OC(F)F)cc2C(=O)N2CC(F)C2)cc(NC(=O)c2cc(CNC[C@H](C)OC)cn(C)c2=O)n1` [Example 275], the pIC50 was greater than 7.00.
`N#Cc1ccc(-c2cc(NC(=O)c3cc(CN[C@H]4CCC[C@@H]4O)cn(C4CC4)c3=O)nc(C3CC3)c2)c(C(=O)N2CC(F)(F)C2)c1` [Example 409] was tested, and the pIC50 was greater than 7.00.
For `CC(C)Oc1cc(-c2ccc(OC(F)F)cc2C(=O)N2CC(F)(F)C2)cc(NC(=O)c2cc(CNC[C@@H]3CCCO3)cn(C3CC3)c2=O)n1` [Example 209], the pIC50 was greater than 7.00.
`CC(C)CNC(C)c1cc(C(=O)Nc2cc(-c3ccc(C#N)cc3C(=O)N3CC(F)(F)C3)cc(C3CC3)n2)c(=O)n(C2CC2)c1` (stereo not shown) [Example 326] gave a pIC50 greater than 7.00.
`CO[C@@H](C)CNCc1cc(C(=O)Nc2cc(-c3ccc(Cl)cc3C(=O)N3CC(F)(F)C3)cc(C3CC3)n2)c(=O)n(C2CC2)c1` [Example 353] was tested, and the pIC50 was greater than 7.00.
`N#Cc1ccc(-c2cc(NC(=O)c3cc(CNCCCF)cn(C4CC4)c3=O)nc(C3CC3)c2)c(C(=O)N2CC(F)(F)C2)c1` [Example 375] was tested, and the pIC50 was greater than 7.00.
For `COc1ccc(-c2cc(NC(=O)c3cc(CNC[C@@H]4CCCO4)cn(C4CC4)c3=O)nc(OC(C)C)c2)c(C(=O)N2CC(F)C2)c1` [Example 283], the pIC50 was greater than 7.00.
